Results as given in article PMC7232190, “FDA-Approved Drugs Efavirenz, Tipranavir, and Dasabuvir Inhibit Replication of Multiple Flaviviruses in Vero Cells” (Microorganisms, 2020).

What was measured:
ZIKV (Paraiba_01) [1] = experiment: Anti-ZIKV activity in human neural cells, pretreatment assay, UKF-NB-4 cells; type: cell-based, Zika virus; conditions: 48 h
[2] = test system: flaviviral surface E antigen (all VBFs tested); experiment: Immunofluorescence staining of viral antigen in infected Vero cells; type: cell-based; conditions: 48 h p.i., 0, 40, 50 µM dasabuvir or efavirenz, 0, 75, 100 µM tipranavir
Description: The results obtained from antiviral assays were confirmed using a cell-based flavivirus immunostaining assay with a mouse monoclonal antibody that specifically recognizes the flavivirus group surface antigen, as described previously. Briefly, Vero cells seeded onto 96-well plates were treated with the test compound (0, 40, or 50 μM dasabuvir or efavirenz; 0, 75, or 100 μM tipranavir) and infected with the individual viruses at a multiplicity of infection of 0.1. After incubation at 37 °C for 48 h, the cell monolayers were fixed with cold acetone-methanol (1:1), blocked with 10% fetal bovine serum, and incubated with the flavivirus antibody (1:250; Sigma-Aldrich, Prague, Czech Republic). After washing, the cells were labeled with an anti-mouse goat secondary antibody conjugated with fluorescein isothiocyanate (FITC; 1:500) and counterstained with DAPI (4′,6-diamidino-2-phenylindole; 1 μg/mL) to allow visualization of the cell nuclei. The fluorescence signal was recorded with an Olympus IX71 epifluorescence microscope and processed by ImageJ software.

ZIKV (Paraiba_01) [3] = experiment: microbe, parasite or virus in culture; type: cell-based, Zika virus; conditions: Vero cells; for EC50: Zika virus, pretreatment 24 h, 48 h incubation, plaque assay
WNV (13-104) = experiment: microbe, parasite or virus in culture; type: cell-based, West Nile virus; conditions: Vero cells; for EC50: West Nile virus, pretreatment 24 h, 48 h incubation, plaque assay
TBEV (Hypr) = experiment: microbe, parasite or virus in culture; type: cell-based, tick-borne encephalitis virus; conditions: for EC50: Tick-borne encephalitis virus, Vero
HCV genotype 1a replicon = test system: HCV genotype 1a replicon; design: method as in PMID 25534735; conditions: HCV subgenomic replicon; cited from earlier work
HCV genotype 1b replicon = test system: HCV genotype 1b replicon; design: method as in PMID 25534735; conditions: HCV subgenomic replicon; cited from earlier work
ZIKV (Paraiba_01) [4] = experiment: Anti-ZIKV activity in human neural cells, pretreatment assay, HBCA cells; type: cell-based, Zika virus; conditions: 48 h
ZIKV (strain MR-766) [5] = experiment: Inhibition of ZIKV-mediated cytopathic effect in a simultaneous treatment assay, Vero cells; conditions: 50 µM, 48 h
ZIKV (MR-766) = experiment: microbe, parasite or virus in culture; type: cell-based, Zika virus; conditions: Vero cells; for EC50: Zika virus, pretreatment 24 h, 48 h incubation, plaque assay
WNV (Eg101) = experiment: microbe, parasite or virus in culture; type: cell-based, West Nile virus; conditions: Vero cells; for EC50: pretreatment 24 h, 48 h incubation, plaque assay
[6] = Cytotoxicity assay (Cell Counting Kit-8); type: cell-based; conditions: African green monkey; Vero cells, 72 h treatment, 0-100 µM
Description: (§1) For detailed cytotoxicity studies, Vero, HBCA, and UKF-NB-4 cells were seeded onto 96-well plates at a density of 10,000 cells per well and incubated for 24 h at 37 °C before being used in the experiment to form a confluent monolayer. After the incubation, tested compounds were added to the cells at concentrations of 0, 3.125, 6.25, 12.5, 25, 50, 75, and 100 µM, and treated under the same regime as during antiviral testing; i.e., pretreatment for 24 h with culture medium containing appropriate drug concentrations, then the medium was exchanged with fresh compound-containing medium. […] The 50% cytotoxic concentration (CC50) values, representing the concentration of compound that reduced cell viability by 50%, were calculated using GraphPad Prism (version 7.04, GraphPad Software, San Diego, CA, USA) as a nonlinear regression (inhibitor vs. normalized response, variable slope).

ZIKV (strain MR-766) [7] = experiment: Anti-ZIKV activity in a simultaneous treatment assay, plaque assay, Vero cells; type: cell-based, Zika virus; conditions: 50 µM, 48 h
ZIKV (strain MR-766) [8] = experiment: Anti-ZIKV activity in a post-treatment assay, plaque assay, Vero cells; type: cell-based, Zika virus; conditions: 50 µM, 48 h
[9] = Cytotoxicity assay (Cell Counting Kit-8); type: cell-based, Human; conditions: human, 72 h treatment, 0-100 µM
Description: as §1

HBCA cells = experiment: Cytotoxicity assay (Cell Counting Kit-8); type: cell-based, Human
Description: as §1

UKF-NB-4 cells = experiment: Cytotoxicity assay (Cell Counting Kit-8); type: cell-based, Human
Description: as §1

HIV = test system: HIV; design: method as in PMID 21041916, PMID 18158073; conditions: H9 cells; read-out: EC90 (anti-HIV activity); cited from earlier work

Row | Structure (SMILES) | surface E antigen expression by all VBFs tested [2] | Selectivity Index (SI) (CC50/EC50) (ZIKV (Paraiba_01) [3]) | EC50 (ZIKV (Paraiba_01) [3]) [µM] | Selectivity Index (SI) (CC50/EC50) (WNV (13-104)) | EC50 (WNV (13-104)) [µM] | Selectivity Index (SI) (CC50/EC50) (TBEV (Hypr)) | EC50 (TBEV (Hypr)) [µM] | viability of the infected cells compared to uninfected controls (inhibition of ZIKV-mediated CPE) (ZIKV (strain MR-766) [5]) [%] | Selectivity Index (SI) (CC50/EC50) (ZIKV (MR-766)) | EC50 (ZIKV (MR-766)) [µM] | Selectivity Index (SI) (CC50/EC50) (WNV (Eg101)) | EC50 (WNV (Eg101); West Nile virus, Vero) [µM] | CC50 at 72 h [6] [µM] | effect on ZIKV titer in the culture (ZIKV (strain MR-766) [7]) | anti-ZIKV effect, drug applied 2 h post-infection (ZIKV (strain MR-766) [8]) | CC50 at 72 h ([9]; HBCA cells) [µM] | CC50 at 72 h ([9]; UKF-NB-4 cells) [µM] | highest non-toxic (>90% viability of the treated cells) concentration (HBCA cells) [µM] | highest non-toxic (>90% viability of the treated cells) concentration (UKF-NB-4 cells) [µM] | also measured
1 | COc1c(-c2ccc3cc(NS(C)(=O)=O)ccc3c2)cc(-n2ccc(=O)[nH]c2=O)cc1C(C)(C)C [Dasabuvir, dasabuvir] | dose-dependent inhibition | 6.29 | 16.1 | 6.48 | 15.7 | 6.67 | 15.2 | > 90 | 6.54 | 15.5 | 5.60 | 18.8 | 102 | reduced ZIKV titer | even stronger compared to 7-deaza-2′-C-methyladenosine | 26 | 21.3 | 12.5 | 6.25 | virus titer reduction in comparison with mock-treated control cells (ZIKV (Paraiba_01) [1]; highest concentration of the drug): approximately 1 log10 pfu/mL; EC50 (HCV genotype 1a replicon): 0.0077 µM; EC50 (HCV genotype 1b replicon): 0.0018 µM; effect on ZIKV replication in the cell culture (ZIKV (Paraiba_01) [4]; 12.5 µM): completely suppressed ZIKV replication; EC50 (WNV (Eg101)): 18.1 µM
2 | C[C@@H]1CCO[C@H]2Cn3cc(C(=O)NCc4ccc(F)cc4F)c(=O)c(O)c3C(=O)N12 [dolutegravir] |  |  |  |  |  |  |  | > 90 |  |  |  |  |  |  |  |  |  |  |  | 
3 | CCC[C@@]1(CCc2ccccc2)CC(O)=C([C@H](CC)c2cccc(NS(=O)(=O)c3ccc(C(F)(F)F)cn3)c2)C(=O)O1 [Tipranavir, tipranavir] | dose-dependent inhibition |  | 29.9 | 5.58 | 24.2 | 3.79 | 35.5 | > 90 | 4.45 | 30.3 | 4.12 | 32.7 | > 100 | reduced ZIKV titer | even stronger compared to 7-deaza-2′-C-methyladenosine | 34 | 89.2 | 12.5 | 50 | antiviral effect against ZIKV (virus titer reduction) (ZIKV (Paraiba_01) [1]; 50 µM): approx. 10^3 fold; EC90 (HIV): 0.1 µM; reduction of ZIKV replication in the HBCA culture (ZIKV (Paraiba_01) [4]; 12.5 µM): approx. 10^3 fold
4 | O=C1Nc2ccc(Cl)cc2[C@@](C#CC2CC2)(C(F)(F)F)O1 [Efavirenz, efavirenz] | dose-dependent inhibition | 2.85 | 25.8 | 4.50 | 16.3 | 4.63 | 15.9 | > 90 | 2.41 | 30.4 | 3.35 | 21.9 | 73.6 | reduced ZIKV titer | antiviral effect | 16.7 | 31.9 | 3.125 | 12.5 | antiviral effect against ZIKV (ZIKV (Paraiba_01) [1]; any concentration tested): No antiviral effect; antiviral effect against ZIKV (ZIKV (Paraiba_01) [4]; any concentration tested): No antiviral effect
